Results on ten compounds are retold here after US8354414B2, “Substituted bicyclic pyrimidines” (Cephalon, Inc, priority 2006, dated 2013).

The target in data set [1] is T1, CDK5/GST-p25 (Homo sapiens, UniProt Q00535).
T1 construct: The final construct, encoding for full-length human CDK5; made in house; host or cells: Sf21 insect cells (baculovirus co-infection)
As to the kind of experiment: Inhibition of CDK5/GST-p25 kinase activity (ELISA with time-resolved fluorescence readout). The data set is classed as biochemical. The procedure, abridged:
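The substrate, GST-Rb(773-928), was immobilised on plates and phosphorylated for 20 min at 37 °C by 2 ng/ml CDK5/GST-p25 in HEPES pH 7.2 with 10 µM ATP and 10 mM MgCl2. Both proteins were human and co-expressed in insect cells. Ser-780 phosphorylation was read by europium time-resolved fluorescence and converted to IC50.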
(ELISA stands for enzyme-linked immunosorbent assay.)

The target in data set [2] is T2, His6-GSK-3β (Homo sapiens, UniProt P49841).
T2 construct: made in house; host or cells: Sf21 insect cells (baculovirus)
T2 sequence (P49841 2-419): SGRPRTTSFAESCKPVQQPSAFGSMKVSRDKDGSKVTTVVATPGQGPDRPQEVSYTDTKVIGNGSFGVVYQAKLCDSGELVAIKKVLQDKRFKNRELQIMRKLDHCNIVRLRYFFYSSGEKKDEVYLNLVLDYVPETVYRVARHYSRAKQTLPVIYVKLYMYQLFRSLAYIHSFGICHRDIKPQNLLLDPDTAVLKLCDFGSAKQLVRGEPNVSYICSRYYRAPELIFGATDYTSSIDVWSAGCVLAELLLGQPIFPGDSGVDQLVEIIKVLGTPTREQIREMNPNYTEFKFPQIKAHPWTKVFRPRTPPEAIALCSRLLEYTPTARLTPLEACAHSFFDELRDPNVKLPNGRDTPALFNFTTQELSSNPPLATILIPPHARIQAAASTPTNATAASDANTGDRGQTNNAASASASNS
As to the kind of experiment: Inhibition of His6-GSK-3β kinase activity (ELISA-based format, time-resolved fluorescence readout). The data set is classed as biochemical. The conditions noted are these: class symbols; read-out: GSK3β IC50. Summed up: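 Plate-bound recombinant GST-Rb substrate was phosphorylated for 30 min at 37° C by baculovirus-expressed His6-GSK-3β (200 ng/ml) at 20 μM ATP, 10 mM MgCl2, 2.5% DMSO. Europium time-resolved fluorescence of anti-phospho-Ser780 Rb signal gave inhibition, fitted to IC50.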

A word on the IC50: it is the concentration that gives 50% inhibition. For orientation: melting point means the temperature of the solid-liquid transition.

T1 sequence (Q00535 whole entry): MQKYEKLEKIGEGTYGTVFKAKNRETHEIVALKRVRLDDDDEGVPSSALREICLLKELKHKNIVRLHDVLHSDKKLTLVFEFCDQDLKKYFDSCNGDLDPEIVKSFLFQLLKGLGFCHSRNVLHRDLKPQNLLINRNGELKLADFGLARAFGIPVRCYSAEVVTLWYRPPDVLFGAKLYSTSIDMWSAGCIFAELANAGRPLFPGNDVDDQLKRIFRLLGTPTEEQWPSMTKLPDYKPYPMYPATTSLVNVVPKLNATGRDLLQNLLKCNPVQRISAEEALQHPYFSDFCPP
T1 sequence (Q15078 108-307 partner limits assumed): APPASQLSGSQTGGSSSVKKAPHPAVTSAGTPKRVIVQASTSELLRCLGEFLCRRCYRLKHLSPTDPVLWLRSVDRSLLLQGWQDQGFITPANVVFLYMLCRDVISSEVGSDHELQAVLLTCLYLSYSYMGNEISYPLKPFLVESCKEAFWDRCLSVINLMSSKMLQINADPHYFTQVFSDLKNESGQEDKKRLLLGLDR

Turning to `C=CCNc1nc(C2C(=O)Nc3ccc(C(F)(F)F)cc32)c2cn(C3CCCC3)nc2n1` (stereo not drawn) [Example 248, 3-(6-Allylamino-2-cyclopentyl-2H-pyrazolo[3,4-d]pyrimidin-4-yl)-5-trifluoromethyl-1,3-dihydro-indol-2-one], the melting point was above 300 °C. This compound also registered an IC50 in data set [1] (class symbols) above 10000 nM. Besides, the IC50 in data set [2] was below 300 nM.

Regarding `CCCn1cc2c(C3C(=O)Nc4ccc(C#N)cc43)ncnc2n1` (stereo not drawn) [Example 96, 3-(2-propyl-1H-pyrazolo[3,4-d]pyrimidin-4-yl)-2-oxo-2,3-dihydro-1H-indole-5-carbonitrile], the melting point is above 300 °C. The IC50 in data set [1] (class symbols) is below 300 nM. The IC50 in data set [2] was below 300 nM.

Compound `CC(=O)NCCNc1nc(C2C(=O)Nc3ccccc32)c2cn(C3CCCC3)nc2n1` (stereo not drawn) [Example 158, 3-(2-cyclopentyl-6-(2-acetylamino-ethylamino)-2H-pyrazolo[3,4-d]pyrimidin-4-yl)-1,3-dihydro-indol-2-one] displayed a melting point of 238 to 240 °C. The IC50 in data set [1] (numeric bounds) was above 3000 nM. The IC50 in data set [2] lay in the range of 300 to 3000 nM.

Compound `N#Cc1ccc2c(c1)C(c1ncnc3c1cnn3C1CCCC1)C(=O)N2` (stereo not drawn) [Example 55, 3-(1-Cyclopentyl-1H-pyrazolo[3,4-d]pyrimidin-4-yl)-2-oxo-2,3-dihydro-1H-indole-5-carbonitrile] gave a melting point above 300 °C. This compound registered a 50% inhibitory concentration (IC50) in data set [1] (class symbols) above 10000 nM. Moreover, the half-inhibitory concentration (IC50) in data set [2] lay within 300 to 3000 nM.

`CCCn1cc2c(C3C(=O)Nc4ccc(Br)cc43)nc(NCCN)nc2n1` (stereo not drawn) [Example 200, 3-[6-(2-Amino-ethylamino)-2-propyl-2H-pyrazolo [3,4-d]pyrimidin-4-yl]-5-bromo-1,3-dihydro-indol-2-one] had a melting point of 272 to 276 °C. The same compound displayed a 50% inhibitory concentration (IC50) in data set [1] (class symbols) below 300 nM. For the same compound, the 50% inhibitory concentration (IC50) in data set [2] is below 300 nM.

In the case of `CCCn1cc2c(C3C(=O)Nc4ccc(Br)cc43)nc(NCCCN3CCOCC3)nc2n1` (stereo not drawn) [Example 203, 5-Bromo-3-[6-(3-morpholin-4-yl-propylamino)-2-propyl-2H-pyrazolo [3,4-d]pyrimidin-4-yl]-1,3-dihydro-indol-2-one], the melting point is 298 to 303 °C. In addition, the 50% inhibitory concentration (IC50) in data set [1] (class symbols) was below 300 nM. For the same compound, the IC50 in data set [2] was below 300 nM.

Turning to `N#Cc1ccc2c(c1)C(c1nc(OCCc3cccnc3)nc3nn(C4CCCC4)cc13)C(=O)N2` (stereo not drawn) [Example 164, 3-[2-cyclopentyl-6-(2-pyridin-3-yl-ethoxy)-2H-pyrazolo [3,4-d]pyrimidin-4-yl]-2-oxo-2,3-dihydro-1H-indole-5-carbonitrile], the melting point was in the range of 302 to 304 °C. For the same compound, the IC50 in data set [1] (class symbols) was above 10000 nM. The IC50 in data set [2] was below 300 nM.

The compound `O=C1Nc2ccc(C(F)(F)F)cc2C1c1nc(NCc2ccncc2)nc2nn(C3CCCC3)cc12` (stereo not drawn) [Example 246, 3-{2-Cyclopentyl-6-[(pyridin-4-ylmethyl)-amino]-2H-pyrazolo[3,4-d]pyrimidin-4-yl}-5-trifluoromethyl-1,3-dihydro-indol-2-one] yielded a melting point above 300 °C. Also, the IC50 in data set [1] (numeric bounds) was above 3000 nM. Besides, the IC50 in data set [2] is below 300 nM.

Consider `CC(C)Cn1cc2c(C3C(=O)Nc4ccc(Cl)cc43)nc(NCCCN3CCOCC3)nc2n1` (stereo not drawn) [Example 271, 5-Chloro-3-[2-isobutyl-6-(3-morpholin-4-yl-propylamino)-2H-pyrazolo[3,4-d]pyrimidin-4-yl]-1,3-dihydro-indol-2-one], for which the melting point lay in the range of 263 to 265.5 °C. The compound further came in with an IC50 in data set [1] (class symbols) below 300 nM. Moreover, the IC50 in data set [2] is below 300 nM.

On to `Cl.NCCCNc1nc(C2C(=O)Nc3ccc(C(F)(F)F)cc32)c2cn(C3CCCC3)nc2n1` (stereo not drawn) [Example 254, 3-[6-(3-Amino-propylamino)-2-cyclopentyl-2H-pyrazolo[3,4-d]pyrimidin-4-yl]-5-trifluoromethyl-1,3-dihydro-indol-2-one hydrochloride salt], for which the melting point fell in the range of 304 to 306 °C. Further, the IC50 in data set [1] (class symbols) was in the range of 300 to 3000 nM. Moreover, in data set [2], the IC50 was below 300 nM.
